Experiments:
[1] = Lopinavir intrinsic clearance by adult human liver microsomes; type: in vitro ADME
CYP21A2 = details: NCI-H295R cells; cited from earlier work
[2] = Lopinavir intrinsic clearance by neonatal human liver microsomes; type: in vitro ADME; details: for mean lopinavir percent loss: lopinavir 1 μM, 30 min
neonatal pooled HLMs = experiment: Inhibition of DHEA-S metabolism; type: biochemical, human; details: DHEA-S 50 μM, HLMs 0.05 mg/mL, lopinavir 8 μM without or with ritonavir 0.5 μM, 30 min
CYP17A1 = details: NCI-H295R cells; cited from earlier work
[3] = both, human, pooled adult human liver microsomes, pH 7.4
[4] = human, pooled neonatal human liver microsomes, pH 7.4

Cc1cccc(C)c1OCC(=O)N[C@@H](Cc1ccccc1)[C@@H](O)C[C@H](Cc1ccccc1)NC(=O)[C@H](C(C)C)N1CCCNC1=O [lopinavir]
mean lopinavir percent loss ([1]; adult HLMs 0.02 mg/mL, lopinavir 1 μM, 30 min): about 94% | lopinavir loss in presence of ritonavir ([1]; adult HLMs 0.02 mg/mL, lopinavir 1 μM, ritonavir 62.5 nM): less than 20% | half-life at 1 μM [1, 3]: 7.18 min | microsomal CLint at 1 μM [1, 3]: 4830 µL/min/mg | inhibition of CYP21A2 (CYP21A2): moderate inhibition | half-life at 1 μM [2, 4]: 52.1 min | microsomal CLint at 1 μM [2, 4]: 133 µL/min/mg | mean lopinavir percent loss ([2]; neonatal HLMs 0.02 mg/mL): 21% | mean lopinavir percent loss ([2]; neonatal HLMs 0.1 mg/mL): 32% | formation rate of 16α-hydroxy DHEA-S in neonatal HLMs (neonatal pooled HLMs): 1.19 nmol/min/mg protein | inhibition of CYP17A1 (CYP17A1): moderate inhibition
